By IC50 is commonly meant the concentration at which inhibition is half-maximal.

Consider 27 compounds from patent US9586970B2, “Imidazole derivatives” (Hoffmann-La Roche Inc., priority 2014, dated 2017).

The target of this assay is human PDE10A (Homo sapiens (Human), UniProt Q9Y233). Nature of the assay: human PDE10A full length assay ([3H]-cGMP SPA). The following applies: full length PDE10A enzyme, 50 nM cGMP + 50 nM [3H]-cGMP, 20 minutes at room temperature; read-out: PDE10A inhibition IC50. It is filed as biochemical. Here is the method:
The human PDE10A full length assay was performed in 96-well micro titer plates. The reaction mixture of 50 μl contained 20 mM HEPES pH=7.5/10 mM MgCl2/0.05 mg/ml BSA (Sigma cat. #A-7906), 50 nM cGMP (Sigma, cat. #G6129) and 50 nM [3H]-cGMP (GE Healthcare, cat. #TRK392 S.A. 13.2 Ci/mmol), 3.75 ng/well PDE10A enzyme (Enzo Life Science, Lausen, Switzerland cat #SE-534) with or without a specific test compound. A range of concentrations of the potential inhibitor was used to generate data for calculating the concentration of inhibitor resulting in 50% of the effect (e.g. IC50, the concentration of the competitor inhibiting PDE10A activity by 50%). Non-specific activity was tested without the enzyme. The reaction was initiated by the addition of the substrate solution (cGMP and [3H]-cGMP) and allowed to progress for 20 minutes at room temperature. The reaction was terminated by adding 25 μl of YSi-SPA scintillation beads (GE Healthcare, cat. # RPNQ0150) in 18 mM zinc sulphate solution (stop reagent). After 1 h under shaking, the plate was centrifuged one minute at 170 g to allow beads to settle. Afterwards, radioactive counts were measured on a Perkin Elmer TopCount Scintillation plate reader.

human PDE10A, sequence (Q9Y233 other isoform, or with tags, fused parts or gaps): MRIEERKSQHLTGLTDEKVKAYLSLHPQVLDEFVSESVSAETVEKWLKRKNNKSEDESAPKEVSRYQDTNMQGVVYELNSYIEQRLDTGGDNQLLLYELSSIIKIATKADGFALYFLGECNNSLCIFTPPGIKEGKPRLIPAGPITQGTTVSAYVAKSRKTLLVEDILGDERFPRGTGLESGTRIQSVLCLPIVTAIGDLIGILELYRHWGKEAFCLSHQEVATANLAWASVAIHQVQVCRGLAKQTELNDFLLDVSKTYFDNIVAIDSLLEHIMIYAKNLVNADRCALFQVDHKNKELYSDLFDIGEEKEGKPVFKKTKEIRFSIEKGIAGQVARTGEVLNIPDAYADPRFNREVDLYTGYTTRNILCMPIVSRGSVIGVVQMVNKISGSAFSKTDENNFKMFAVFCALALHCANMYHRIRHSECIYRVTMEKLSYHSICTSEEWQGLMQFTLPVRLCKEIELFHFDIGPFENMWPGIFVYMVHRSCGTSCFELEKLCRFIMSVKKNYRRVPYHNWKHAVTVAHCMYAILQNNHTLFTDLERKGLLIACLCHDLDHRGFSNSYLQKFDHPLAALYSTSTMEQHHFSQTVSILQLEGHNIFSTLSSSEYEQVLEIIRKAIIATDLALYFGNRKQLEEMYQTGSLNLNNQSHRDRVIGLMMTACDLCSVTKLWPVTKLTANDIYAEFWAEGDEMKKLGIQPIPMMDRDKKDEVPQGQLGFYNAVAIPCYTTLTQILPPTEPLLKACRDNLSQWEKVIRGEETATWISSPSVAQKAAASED

“1-{2-[(E)-2-{4,7-Dimethyl-[1,2,4]triazolo[1,5-a]pyrazin-2-yl}ethenyl]-1-phenyl-1H-imidazol-4-yl}pyrrolidin-2-one [Example 20]”: the IC50 came to 19.4 nM.

With `Cc1cnc(C)n2nc(CCc3nc(N4CCCC4=O)cn3C)nc12` [Example 1, 1-(2-(2-(5,8-dimethyl-[1,2,4]triazolo[1,5-c]pyrimidin-2-yl)ethyl)-1-methyl-1H-imidazol-4-yl)pyrrolidin-2-one], the concentration for half-maximal inhibition (IC50) was found to be 39 nM.

Regarding `Cc1ncc(C)n2nc(CCc3nc(N4CCCC4=O)cn3-c3ccccc3)nc12` [Example 2, 1-(2-(2-(5,8-dimethyl-[1,2,4]triazolo[1,5-a]pyrazin-2-yl)ethyl)-1-phenyl-1H-imidazol-4-yl)pyrrolidin-2-one], the IC50 stood at 1.3 nM.

As for `Cc1ncc(C)n2nc(/C=C/c3nc(N4CCCC4=O)cn3-c3ccccc3)nc12` [Example 3], the concentration for half-maximal inhibition (IC50) amounted to 9.5 nM.

`Cc1ncc(C)n2nc(CCc3nc(-n4ccccc4=O)cn3CC3CC3)nc12` [Example 4, 1-(1-(Cyclopropylmethyl)-2-(2-(5,8-dimethyl-[1,2,4]triazolo[1,5-a]pyrazin-2-yl)ethyl)-1H-imidazol-4-yl)pyridin-2(1H)-one]: the 50% inhibitory concentration (IC50) was determined as 150 nM.

For `Cc1ncc(C)n2nc(CCc3nc(-n4ccccc4=O)cn3C)nc12` [Example 5, 1-(2-(2-(5,8-dimethyl-[1,2,4]triazolo[1,5-a]pyrazin-2-yl)ethyl)-1-methyl-1H-imidazol-4-yl)pyridin-2(1H)-one], the IC50 was 195 nM.

Regarding `Cc1ncc(C)n2nc(/C=C/c3nc(N4CCCC4=O)cn3C3CC3)nc12` [Example 6, 1-[1-cyclopropyl-2-[(E)-2-(5,8-dimethyl-[1,2,4]triazolo[1,5-a]pyrazin-2-yl)ethenyl]imidazol-4-yl]pyrrolidin-2-one], the IC50 is 81 nM.

`Cc1ncc(C)n2nc(CCc3nc(N4CCCC4=O)cn3C3CC3)nc12` [Example 7, 1-{1-Cyclopropyl-2-[2-(5,8-dimethyl-[1,2,4]triazolo[1,5-a]pyrazin-2-yl)-ethyl]-1H-imidazol-4-yl}-pyrrolidin-2-one]: the IC50 was determined as 27 nM.

`Cc1ncc(C)n2nc(/C=C/c3nc(N4CCN(C)C4=O)cn3C)nc12` [Example 8, 2′-[(E)-2-(5,8-Dimethyl-[1,2,4]triazolo[1,5-a]pyrazin-2-yl)-vinyl]-3, 1′-dimethyl-4,5-dihydro-3H, 1′H-[1,4′]biimidazolyl-2-one]: the IC50 was found to be 162 nM.

For the compound `Cc1nc(C#Cc2nc(N3CCCC3=O)cn2C)nc2c(C)cccc12` [Example 9, 1-(2-((4,8-dimethylquinazolin-2-yl)ethynyl)-1-methyl-1H-imidazol-4-yl)pyrrolidin-2-one], the IC50 turned out to be 4.6 nM.

Turning to `Cc1ncc(C)n2nc(/C=C/c3nc(N4CCCC4=O)cn3C)nc12` [Example 10, 1-{2-[(E)-2-{4,7-dimethyl-[1,2,4]triazolo[1,5-a]pyrazin-2-yl}ethenyl]-1-methyl-1H-imidazol-4-yl}pyrrolidin-2-one], the IC50 was determined as 54.6 nM.

Take `Cc1ncc(C)n2nc(CCc3nc(N4CCCC4=O)cn3C)nc12` [Example 11, 1-[2-(2-{4,7-Dimethyl-[1,2,4]triazolo[1,5-a]pyrazin-2-yl}ethyl)-1-methyl-1H-imidazol-4-yl]pyrrolidin-2-one]: the IC50 is 18 nM.

Regarding `Cc1ncc(C)n2nc(CCc3nc(N4CCCC4=O)cn3CC3CC3)nc12` [Example 12, 1-[1-(Cyclopropylmethyl)-2-(2-{4,7-dimethyl-[1,2,4]triazolo[1,5-a]pyrazin-2-yl}ethyl)-1H-imidazol-4-yl]pyrrolidin-2-one], the IC50 turned out to be 16.9 nM.

With `Cc1ncc(C)n2nc(CCc3nc(N4CCCC4=O)cn3CC(F)(F)F)nc12` [Example 13, 1-[2-(2-{4,7-Dimethyl-[1,2,4]triazolo[1,5-a]pyrazin-2-yl}ethyl)-1-(2,2,2-trifluoroethyl)-1H-imidazol-4-yl]pyrrolidin-2-one], the IC50 was found to be 36.7 nM.

As to `Cc1ncc(C)n2nc(CCc3nc(N4CCCC4=O)cn3CC(F)F)nc12` [Example 14, 1-[1-(2,2-difluoroethyl)-2-(2-{4,7-dimethyl-[1,2,4]triazolo[1,5-a]pyrazin-2-yl}ethyl)-1H-imidazol-4-yl]pyrrolidin-2-one], the IC50 came to 46.9 nM.

`Cc1ncc(C)n2nc(C#Cc3nc(N4CCCC4=O)cn3C)nc12` [Example 15, 1-[2-(2-{4,7-Dimethyl-[1,2,4]triazolo[1,5-a]pyrazin-2-yl}ethynyl)-1-methyl-1H-imidazol-4-yl]pyrrolidin-2-one]: the IC50 worked out at 29 nM.

As to `Cc1cnc(C)n2nc(CCc3nc(N4CCCC4=O)cn3CC3CC3)nc12` [Example 16, 1-[1-(Cyclopropylmethyl)-2-(2-{5,8-dimethyl-[1,2,4]triazolo[1,5-c]pyrimidin-2-yl}ethyl)-1H-imidazol-4-yl]pyrrolidin-2-one], the IC50 is 14.8 nM.

On to `Cc1cnc(C)n2nc(CCc3nc(N4CCCC4=O)cn3-c3ccccc3)nc12` [Example 17, 1-[2-[2-(5,8-dimethyl-[1,2,4]triazolo[1,5-c]pyrimidin-2-yl)ethyl]-1-phenyl-imidazol-4-yl]pyrrolidin-2-one], for which the 50% inhibitory concentration (IC50) was determined as 3.2 nM.

Turning to `Cc1cnc(C)n2nc(CCc3nc(N4CCCC4=O)cn3CC(F)(F)F)nc12` [Example 18, 1-[2-(2-{5,8-dimethyl-[1,2,4]triazolo[1,5-c]pyrimidin-2-yl}ethyl)-1-(2,2,2-trifluoroethyl)-1H-imidazol-4-yl]pyrrolidin-2-one], the half-inhibitory concentration (IC50) came to 168 nM.

In the case of `Cc1cnc(C)n2nc(CCc3nc(N4CCCC4=O)cn3CC(F)F)nc12` [Example 19, 1-[1-(2,2-difluoroethyl)-2-(2-{5,8-dimethyl-[1,2,4]triazolo[1,5-c]pyrimidin-2-yl}ethyl)-1H-imidazol-4-yl]pyrrolidin-2-one], the 50% inhibitory concentration (IC50) amounted to 26.8 nM.

For `Cc1cc(C)n2nc(CCc3nc(N4CCCC4=O)cn3C)nc2n1` [Example 21, 1-[2-(2-{5,7-dimethyl-[1,2,4]triazolo[1,5-a]pyrimidin-2-yl}ethyl)-1-methyl-1H-imidazol-4-yl]pyrrolidin-2-one], the IC50 was found to be 176 nM.

On to `Cc1c(C(F)(F)F)nc2ccc(CCc3nc(N4CCCC4=O)cn3C)nn12` [Example 22, 1-(1-Methyl-2-{2-[3-methyl-2-(trifluoromethyl)imidazo[1,2-b]pyridazin-6-yl]ethyl}-1H-imidazol-4yl) pyrrolidin-2-one], for which the IC50 came to 117 nM.

For `Cc1c(C(F)(F)F)nc2ccc(CCc3nc(N4CCCC4=O)cn3-c3ccccc3)nn12` [Example 23, 1-(2-{2-[3-Methyl-2-(trifluoromethyl)imidazo[1,2-b]pyridazin-6-yl]ethyl}-1-phenyl-1H-imidazol-4yl)pyrrolidin-2-one], the IC50 turned out to be 3.1 nM.

Regarding `Cc1c(C(F)(F)F)nc2ccc(C#Cc3nc(N4CCCC4=O)cn3C)nn12` [Example 24, 1-(1-Methyl-2-{2-[3-methyl-2-(trifluoromethyl)imidazo[1,2-b]pyridazin-6-yl]ethynyl}-1H-imidazol-4-yl)pyrrolidin-2-one], the IC50 is 75.5 nM.

For the compound `Cc1c(C(F)(F)F)nc2ccc(C#Cc3nc(N4CCCC4=O)cn3-c3ccccc3)nn12` [Example 25, 1-(2-{2-[3-methyl-2-(trifluoromethyl)imidazo[1,2-b]pyridazin-6-yl]ethynyl}-1-phenyl-1H-imidazol-4-yl) pyrrolidin-2-one], the 50% inhibitory concentration (IC50) came out at 21.9 nM.

`CNC(=O)c1cc(CCc2nc(N3CCCC3=O)cn2C)nn2c(C)c(C(F)(F)F)nc12` [Example 26]: the IC50 came out at 112 nM.

Turning to `CNC(=O)c1cc(CCc2nc(N3CCCC3=O)cn2-c2ccccc2)nn2c(C)c(C(F)(F)F)nc12` [Example 27, N,3-Dimethyl-6-{2-[4-(2-oxopyrrolidin-1-yl)-1-phenyl-1H-imidazol-2-yl]ethyl}-2-(trifluoromethyl)imidazo[1,2-b]pyridazine-8-carb oxamide], the IC50 was 2.9 nM.
